In PubChem BioAssay (NCI):
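Compound exposure: 48 hours, 5 concentrations, 96-well plates. GI50 = concentration required for 50% inhibition of growth. TGI is the concentration that stops growth completely.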

What was measured:
Experiment in all cases: DTP human tumour cell line panel, 48 h
HCT-116 colon = system: HCT-116 colon
COLO 205 colon = system: COLO 205 colon
EKVX NSCLC = system: EKVX NSCLC
OVCAR-3 ovarian = system: OVCAR-3 ovarian
HT29 colon = system: HT29 colon
A498 renal = system: A498 renal
U251 CNS = system: U251 CNS
NCI-H23 lung = system: NCI-H23 lung
NCI/ADR-RES ovarian = system: NCI/ADR-RES ovarian
SN12C renal = system: SN12C renal
SK-MEL-5 melanoma = system: SK-MEL-5 melanoma
TK-10 renal = system: TK-10 renal
SW-620 colon = system: SW-620 colon
MOLT-4 leukemia = system: MOLT-4 leukemia
DU-145 prostate = system: DU-145 prostate
UACC-257 melanoma = system: UACC-257 melanoma
SNB-75 CNS = system: SNB-75 CNS
HS 578T breast = system: HS 578T breast
IGROV1 ovarian = system: IGROV1 ovarian
NCI-H460 lung = system: NCI-H460 lung
UACC-62 melanoma = system: UACC-62 melanoma
PC-3 prostate = system: PC-3 prostate
NCI-H226 lung = system: NCI-H226 lung
RXF 393 renal = system: RXF 393 renal
HOP-92 NSCLC = system: HOP-92 NSCLC
HOP-62 NSCLC = system: HOP-62 NSCLC
MALME-3M melanoma = system: MALME-3M melanoma
SF-295 CNS = system: SF-295 CNS
MDA-MB-231 breast = system: MDA-MB-231 breast
HCT-15 colon = system: HCT-15 colon
SF-539 CNS = system: SF-539 CNS
MCF7 breast = system: MCF7 breast
OVCAR-5 ovarian = system: OVCAR-5 ovarian
SK-MEL-28 melanoma = system: SK-MEL-28 melanoma
HL-60(TB) leukemia = system: HL-60(TB) leukemia
SF-268 CNS = system: SF-268 CNS
KM12 colon = system: KM12 colon
A549 NSCLC = system: A549 NSCLC
UO-31 renal = system: UO-31 renal
SK-MEL-2 melanoma = system: SK-MEL-2 melanoma
ACHN renal = system: ACHN renal
LOX IMVI melanoma = system: LOX IMVI melanoma
K-562 leukemia = system: K-562 leukemia
OVCAR-4 ovarian = system: OVCAR-4 ovarian
OVCAR-8 ovarian = system: OVCAR-8 ovarian
BT-549 breast = system: BT-549 breast
CAKI-1 renal = system: CAKI-1 renal
RPMI-8226 leukemia = system: RPMI-8226 leukemia
M14 melanoma = system: M14 melanoma
SK-OV-3 ovarian = system: SK-OV-3 ovarian
SR leukemia = system: SR leukemia
SNB-19 CNS = system: SNB-19 CNS
786-0 renal = system: 786-0 renal
CCRF-CEM leukemia = system: CCRF-CEM leukemia
MDA-MB-435 = system: MDA-MB-435
T-47D breast = system: T-47D breast

Compound: CCC(=O)[C@H](C)[C@@H](OC(=O)[C@H](C)CC)[C@H](C)[C@H]1OC(CC)=C(C)C(=O)[C@@H]1C
- GI50 (HCT-116 colon): 9.98 µM
- TGI (HCT-116 colon): 72.4 µM
- GI50 (COLO 205 colon): 14.9 µM
- TGI (COLO 205 colon): 29.3 µM
- GI50 (EKVX NSCLC): 23.9 µM
- TGI (EKVX NSCLC): 73.9 µM
- GI50 (OVCAR-3 ovarian): 17.4 µM
- TGI (OVCAR-3 ovarian): 36.8 µM
- GI50 (HT29 colon): 13.4 µM
- TGI (HT29 colon): 32.8 µM
- GI50 (A498 renal): 25.2 µM
- TGI (A498 renal): 73 µM
- GI50 (U251 CNS): 17.6 µM
- TGI (U251 CNS): 35.8 µM
- GI50 (NCI-H23 lung): 19.6 µM
- TGI (NCI-H23 lung): 92.4 µM
- GI50 (NCI/ADR-RES ovarian): 18.6 µM
- TGI (NCI/ADR-RES ovarian): 55 µM
- GI50 (SN12C renal): 15.4 µM
- TGI (SN12C renal): 29.8 µM
- GI50 (SK-MEL-5 melanoma): 15.3 µM
- TGI (SK-MEL-5 melanoma): 28.8 µM
- GI50 (TK-10 renal): 30.7 µM
- TGI (TK-10 renal): 88.9 µM
- GI50 (SW-620 colon): 24.7 µM
- TGI (SW-620 colon): 62.5 µM
- GI50 (MOLT-4 leukemia): 19.1 µM
- TGI (MOLT-4 leukemia): 53.6 µM
- GI50 (DU-145 prostate): 23.4 µM
- TGI (DU-145 prostate): 68.4 µM
- GI50 (UACC-257 melanoma): 33.2 µM
- TGI (UACC-257 melanoma): > 100 µM
- GI50 (SNB-75 CNS): 31.8 µM
- TGI (SNB-75 CNS): 80.3 µM
- GI50 (HS 578T breast): 30.3 µM
- TGI (HS 578T breast): 89.3 µM
- GI50 (IGROV1 ovarian): 17.1 µM
- TGI (IGROV1 ovarian): 46.7 µM
- GI50 (NCI-H460 lung): 15.7 µM
- TGI (NCI-H460 lung): 36.2 µM
- GI50 (UACC-62 melanoma): 13.7 µM
- TGI (UACC-62 melanoma): 27.7 µM
- GI50 (PC-3 prostate): 16.8 µM
- TGI (PC-3 prostate): > 100 µM
- GI50 (NCI-H226 lung): 16 µM
- TGI (NCI-H226 lung): 31.6 µM
- GI50 (RXF 393 renal): 21.5 µM
- TGI (RXF 393 renal): 46.4 µM
- GI50 (HOP-92 NSCLC): 23.1 µM
- TGI (HOP-92 NSCLC): 62.1 µM
- GI50 (HOP-62 NSCLC): 21.2 µM
- TGI (HOP-62 NSCLC): 48.1 µM
- GI50 (MALME-3M melanoma): 19.9 µM
- TGI (MALME-3M melanoma): 42.4 µM
- GI50 (SF-295 CNS): 21.8 µM
- TGI (SF-295 CNS): 43.7 µM
- GI50 (MDA-MB-231 breast): 13.3 µM
- TGI (MDA-MB-231 breast): 30.9 µM
- GI50 (HCT-15 colon): 17 µM
- TGI (HCT-15 colon): 42.2 µM
- GI50 (SF-539 CNS): 18.1 µM
- TGI (SF-539 CNS): 33.1 µM
- GI50 (MCF7 breast): 26.3 µM
- TGI (MCF7 breast): 89 µM
- GI50 (OVCAR-5 ovarian): 15.4 µM
- TGI (OVCAR-5 ovarian): 48 µM
- GI50 (SK-MEL-28 melanoma): 21.2 µM
- TGI (SK-MEL-28 melanoma): 57.4 µM
- GI50 (HL-60(TB) leukemia): 15.3 µM
- TGI (HL-60(TB) leukemia): 40.3 µM
- GI50 (SF-268 CNS): 25.3 µM
- TGI (SF-268 CNS): > 100 µM
- GI50 (KM12 colon): 19.5 µM
- TGI (KM12 colon): 52.5 µM
- GI50 (A549 NSCLC): 30.9 µM
- TGI (A549 NSCLC): > 100 µM
- GI50 (UO-31 renal): 24 µM
- TGI (UO-31 renal): 66.6 µM
- GI50 (SK-MEL-2 melanoma): 24.6 µM
- TGI (SK-MEL-2 melanoma): 50.2 µM
- GI50 (ACHN renal): 30 µM
- TGI (ACHN renal): > 100 µM
- GI50 (LOX IMVI melanoma): 16.9 µM
- TGI (LOX IMVI melanoma): 30.5 µM
- GI50 (K-562 leukemia): 39.3 µM
- TGI (K-562 leukemia): > 100 µM
- GI50 (OVCAR-4 ovarian): 29 µM
- TGI (OVCAR-4 ovarian): > 100 µM
- GI50 (OVCAR-8 ovarian): 42.4 µM
- TGI (OVCAR-8 ovarian): > 100 µM
- GI50 (BT-549 breast): 16.6 µM
- TGI (BT-549 breast): 34.9 µM
- GI50 (CAKI-1 renal): 21.2 µM
- TGI (CAKI-1 renal): 52 µM
- GI50 (RPMI-8226 leukemia): 10.1 µM
- TGI (RPMI-8226 leukemia): 35.1 µM
- GI50 (M14 melanoma): 22.8 µM
- TGI (M14 melanoma): 72.5 µM
- GI50 (SK-OV-3 ovarian): 37.1 µM
- TGI (SK-OV-3 ovarian): > 100 µM
- GI50 (SR leukemia): 13.5 µM
- TGI (SR leukemia): 42.3 µM
- GI50 (SNB-19 CNS): 42.6 µM
- TGI (SNB-19 CNS): > 100 µM
- GI50 (786-0 renal): 25.5 µM
- TGI (786-0 renal): 84.2 µM
- GI50 (CCRF-CEM leukemia): 19.7 µM
- TGI (CCRF-CEM leukemia): 44.8 µM
- GI50 (MDA-MB-435): 21.5 µM
- TGI (MDA-MB-435): 56.1 µM
- GI50 (T-47D breast): 18.1 µM
- TGI (T-47D breast): > 100 µM
